Reference: PMC12035797, “Peptidomimetics Activating the Proteasome: A New Perspective for Parkinson’s Treatment” (Journal of Medicinal Chemistry, 2025)
Where a SMILES comes first, the peptide text is derived from it. [ ]: non-standard residue; d: D form. N(4-MeOBn)Gly = COc1ccc(CNCC(=O)O)cc1; NMeY = CN[C@@H](Cc1ccc(O)cc1)C(=O)O; Gly(N-CH2CH2OH) = O=C(O)CNCCO; NMeK = CN[C@@H](CCCCN)C(=O)O; Nlys = NCCCCNCC(=O)O

Assays:
Assay type in all cases: biochemical
human 20S proteasome = system: T1, human 20S proteasome; experiment: h20S proteasome activity probed with FRET-type Dabcyl-EDANS substrate; conditions: for h20S stimulating capacity, Dabcyl-EDANS: 1.0-50 μM modulator
T1 construct: human proteasome isolated from erythrocytes; from tissue; host or cells: human erythrocytes
Description: (§1) To assess the influence of substitutions increasing proteolytic stability on the modulators’ capacity to stimulate chymotrypsin-like, trypsin-like, and caspase-like activity of h20S, we used classic fluorogenic substrates: Suc-LLVY-AMC, Boc-LRR-AMC, and Z-LLE-AMC, respectively. To confirm the observed stimulating capacity, we also conducted assays using a FRET-type reporter peptide with a sequence consisting of 11 residues (Lys(Dabcyl)-[…]EDANS)-Gly).[27] As we checked, the activated 20S hydrolyzed this substrate after more than one residue (Lys, Gly, and Glu), which makes it a probe better reflecting the concerted action of the proteasome’s three peptidases. […] The discrepancy in the level of activation was mainly due to the greater sensitivity of the FRET substrate, as it is not digested, unlike the AMC-based probes, by the latent proteasome, which results in greater differences in fluorescence relative to the controls. […] The ability to affect individual peptidases of the proteasome in different ways is most likely related to the allosteric mechanism of action of the modulators. Binding at a site distant from the catalytic compartment may result in greater diversity in the pathways by which the signal reaches active sites and differential effects of that signal on each peptidase.
(§2) The effect of all synthesized peptidomimetics on the catalytic activity of the proteasome was tested using a human proteasome isolated from erythrocytes. Suc-LLVY-AMC, Boc-LRR-AMC, and Z-LLE-AMC fluorogenic substrates (Bachem, Bubendorf, Switzerland) were used for assessment of the chymotrypsin-, trypsin-, and caspase-like activities, respectively. A homemade FRET-type substrate Dabcyl-EDANS (Lys(Dabcyl)-[…]EDANS)-Gly)[26] was used as an additional probe. Stock solutions of the substrates and tested peptidomimetics were prepared in dimethyl sulfoxide (DMSO), ensuring that the final concentration of DMSO in all samples remained consistent at 2%. The small fluorogenic substrates were used at a final concentration of 100 μM, while Dabcyl-EDANS was prepared at a final concentration of 15 μM. Modulators were tested in concentrations ranging from 1.0 to 50 μM, with compounds containing TAT or 6R sequences tested at lower concentrations ranging from 0.5 to 10 μM. Activity tests were conducted in 96-well plates using 50 mM Tris/HCl, pH 8.0, as an assay buffer. The final concentration of h20S proteasome was adjusted to 0.002 mg/mL (2.8 nM). The fluorescence of released aminomethylcoumarin (AMC) was monitored at 460 nm (λex was 380 nm), while the hydrolysis of Dabcyl-EDANS was detected by measuring emission at 493 nm (λex was set at 335 nm). Fluorescence measurements were taken continuously every 2 min over a 60 min period at 37 °C using a Tecan Infinite M200Pro spectrofluorometer (Tecan Trading AG, Männedorf, Switzerland). All activity assays were performed in at least three independent replicates. The relative activity was calculated in relation to the catalytic activity of the vehicle (DMSO)-treated latent proteasome, which was regarded as 100%. Statistical analysis was performed using the one-way ANOVA followed by Tukey’s post-hoc test. P-value <0.05 was considered statistically significant.

[1] = system: T2, human 20S proteasome, ChT-L peptidase; experiment: Chymotrypsin-like (ChT-L) activity of h20S probed with Suc-LLVY-AMC
T2 construct: human proteasome isolated from erythrocytes; from tissue; host or cells: human erythrocytes
Experimental: (§3) To assess the influence of substitutions increasing proteolytic stability on the modulators’ capacity to stimulate chymotrypsin-like, trypsin-like, and caspase-like activity of h20S, we used classic fluorogenic substrates: Suc-LLVY-AMC, Boc-LRR-AMC, and Z-LLE-AMC, respectively.
as §2, with “Modulators were tested in concentrations ranging from 1.0 to 50 μM, with compounds containing TAT or 6R sequences tested at lower concentrations ranging from 0.5 to 10 μM.” left out

[2] = system: T3, human 20S proteasome, T-L peptidase; experiment: Trypsin-like (T-L) activity of h20S probed with Boc-LRR-AMC; conditions: 100 μM Boc-LRR-AMC
T3 construct: human proteasome isolated from erythrocytes; from tissue; host or cells: human erythrocytes
Experimental: as §3
as §2, with “Modulators were tested in concentrations ranging from 1.0 to 50 μM, with compounds containing TAT or 6R sequences tested at lower concentrations ranging from 0.5 to 10 μM.” left out

[3] = system: T4, human 20S proteasome, C-L peptidase; experiment: Caspase-like (C-L) activity of h20S probed with Z-LLE-AMC; conditions: 100 μM Z-LLE-AMC
T4 construct: human proteasome isolated from erythrocytes; from tissue; host or cells: human erythrocytes
Description: as §1, §2

[4] = 100 μM Suc-LLVY-AMC, whole concentration range

Compound | h20S stimulating capacity, Dabcyl-EDANS (human 20S proteasome; 15 μM Dabcyl-EDANS) | stimulation of h20S activity, Dabcyl-EDANS probe (human 20S proteasome; 15 μM Dabcyl-EDANS, level reached vs latent proteasome) [fold] | h20S stimulating potency, Dabcyl-EDANS (human 20S proteasome; at the lowest concentrations) | stimulation of h20S activity, Suc-LLVY-AMC probe ([1]; 100 μM Suc-LLVY-AMC, level reached vs latent proteasome) [fold] | ChT-L stimulating capacity, Suc-LLVY-AMC [1, 4] | ChT-L stimulating capacity, Suc-LLVY-AMC ([1]; at 1 μM concentration) | ChT-L stimulating capacity, Suc-LLVY-AMC ([1]; at higher concentrations) | T-L stimulating capacity, Boc-LRR-AMC [2] | C-L stimulating capacity, Z-LLE-AMC [3]
CN[C@@H](CCCCN)C(=O)N(C)[C@@H](Cc1ccc(O)cc1)C(=O)N[C@@H](Cc1ccccc1)C(=O)N[C@H](C(=O)NCC(=O)N[C@@H](CO)C(=O)N[C@@H](CCCCN)C(=O)N[C@@H](CC(=O)O)C(=O)N[C@@H](Cc1c[nH]c2ccccc12)C(=O)N[C@@H](CCCNC(=N)N)C(=O)N[C@@H](CO)C(=O)N[C@@H](Cc1ccc(O)cc1)C(=O)N[C@@H](Cc1ccc(O)cc1)C(=O)N[C@@H](CO)C(=O)O)[C@@H](C)O [1e] (H-[NMeK][NMeY]FTGSKDWRSYYS-OH) | did not lose their ability to effectively stimulate h20S | 12 | even more potent than 1 | 8 |  |  |  |  | 
RKKRRQRRR [tat, fragment of the HIV-1 Tat 48–58 peptide used as cell-penetrating peptide, tested alone as control, reference compound] |  |  |  |  | proteasome inhibition |  |  |  | 
C[C@@H](O)[C@H](NC(=O)[C@H](Cc1ccccc1)NC(=O)[C@H](Cc1ccc(O)cc1)NC(=O)CNCCCCN)C(=O)NCC(=O)N[C@@H](CO)C(=O)N(CCCCN)CC(=O)N[C@@H](CC(=O)O)C(=O)N[C@@H](Cc1ccc(O)cc1)C(=O)N[C@@H](CCCNC(=N)N)C(=O)N[C@@H](CCCNC(=N)N)C(=O)N[C@@H](Cc1ccc(O)cc1)C(=O)N[C@@H](Cc1ccc(O)cc1)C(=O)N[C@@H](CO)C(=O)O [2c] (H-[Nlys]YFTGS[Nlys]DYRRYYS-OH) | comparable stimulatory capacity |  |  |  |  | same moderate efficiency | efficiency comparable to 2 and 2a | comparable stimulatory capacity | comparable stimulatory capacity
C[C@@H](O)[C@H](NC(=O)[C@H](Cc1ccccc1)NC(=O)[C@H](Cc1ccc(O)cc1)NC(=O)[C@@H](N)CCCCN)C(=O)NCC(=O)N[C@@H](CO)C(=O)N[C@@H](CCCCN)C(=O)N[C@@H](CC(=O)O)C(=O)N[C@@H](Cc1c[nH]c2ccccc12)C(=O)N[C@@H](CCCNC(=N)N)C(=O)N(CCO)CC(=O)N[C@@H](Cc1ccc(O)cc1)C(=O)N[C@@H](Cc1ccc(O)cc1)C(=O)N[C@@H](CO)C(=O)O [1b] (H-KYFTGSKDWR[Gly(N-CH2CH2OH)]YYS-OH) | less strongly than 1 |  |  |  | lower capacity of activating h20S |  |  |  | 
COc1ccc(CN(CC(=O)N[C@@H](Cc2ccccc2)C(=O)N[C@H](C(=O)NCC(=O)N[C@@H](CO)C(=O)N[C@@H](CCCCN)C(=O)N[C@@H](CC(=O)O)C(=O)N[C@@H](Cc2ccc(O)cc2)C(=O)N[C@@H](CCCNC(=N)N)C(=O)N[C@@H](CCCNC(=N)N)C(=O)N[C@@H](Cc2ccc(O)cc2)C(=O)N[C@@H](Cc2ccc(O)cc2)C(=O)N[C@@H](CO)C(=O)O)[C@@H](C)O)C(=O)[C@@H](N)CCCCN)cc1 [2d] (H-K[N(4-MeOBn)Gly]FTGSKDYRRYYS-OH) | comparable stimulatory capacity |  |  |  |  | same moderate efficiency | as inefficient as 2e | comparable stimulatory capacity | comparable stimulatory capacity
C[C@@H](O)[C@H](NC(=O)[C@H](Cc1ccccc1)NC(=O)[C@H](Cc1ccc(O)cc1)NC(=O)[C@@H](N)CCCCN)C(=O)NCC(=O)N[C@@H](CO)C(=O)N(CCCCN)CC(=O)N[C@@H](CC(=O)O)C(=O)N[C@@H](Cc1ccc(O)cc1)C(=O)N[C@@H](CCCNC(=N)N)C(=O)N[C@@H](CCCNC(=N)N)C(=O)N[C@@H](Cc1ccc(O)cc1)C(=O)N[C@@H](Cc1ccc(O)cc1)C(=O)N[C@@H](CO)C(=O)O [2b] (H-KYFTGS[Nlys]DYRRYYS-OH) | comparable stimulatory capacity |  |  |  |  |  | efficiency comparable to 2 and 2a | comparable stimulatory capacity | comparable stimulatory capacity
H-KYFTGSKDYRRYYS-OH [compound 2] | most effective h20S stimulators |  |  |  | most effective h20S stimulators |  |  |  | 
COc1ccc(CN(CC(=O)N[C@@H](CCCNC(=N)N)C(=O)N[C@@H](CCCNC(=N)N)C(=O)N[C@@H](Cc2ccc(O)cc2)C(=O)N[C@@H](Cc2ccc(O)cc2)C(=O)N[C@@H](CO)C(=O)O)C(=O)[C@H](CC(=O)O)NC(=O)[C@H](CCCCN)NC(=O)[C@H](CO)NC(=O)CNC(=O)[C@@H](NC(=O)[C@H](Cc2ccccc2)NC(=O)[C@H](Cc2ccc(O)cc2)NC(=O)[C@@H](N)CCCCN)[C@@H](C)O)cc1 [2e] (H-KYFTGSKD[N(4-MeOBn)Gly]RRYYS-OH) | least effective stimulants |  |  |  | least effective stimulants |  |  | weakest activators | weakest activators
